Active and inactive are the calls of the source. The rule behind the calls is not given here.
Experiments:
SKNO-1 [1] = experiment: Effect on STAT1 level in human SKNO-1 cells upto 5 uM measured for 18 hrs by Western blot analysis; assay type: functional, cell-based
OCI-AML2 = experiment: Antiproliferative activity against human OCI-AML2 cells assessed as cell growth inhibition measured for 4 days by celltiter-glo assay; settings: OCI-AML2, 96 h
MV4-11 [2] = experiment: Effect on STAT3 level in human MV4-11 cells upto 5 uM measured for 18 hrs by Western blot analysis; assay type: functional, cell-based
MOLM-13 [3] = experiment: Antiproliferative activity against human MOLM-13 cells assessed as cell growth inhibition measured for 4 days by celltiter-glo assay; settings: MOLM-13, 96 h
STAT5A/STAT5B [4] = target: T1, STAT5A/STAT5B (Homo sapiens, UniProt P42229+P51692); experiment: Induction of STAT5A/5B degradation in human BDCM cells measured for 18 hrs by immunoblotting analysis; assay type: cell-based
T1 sequence (P42229 whole entry): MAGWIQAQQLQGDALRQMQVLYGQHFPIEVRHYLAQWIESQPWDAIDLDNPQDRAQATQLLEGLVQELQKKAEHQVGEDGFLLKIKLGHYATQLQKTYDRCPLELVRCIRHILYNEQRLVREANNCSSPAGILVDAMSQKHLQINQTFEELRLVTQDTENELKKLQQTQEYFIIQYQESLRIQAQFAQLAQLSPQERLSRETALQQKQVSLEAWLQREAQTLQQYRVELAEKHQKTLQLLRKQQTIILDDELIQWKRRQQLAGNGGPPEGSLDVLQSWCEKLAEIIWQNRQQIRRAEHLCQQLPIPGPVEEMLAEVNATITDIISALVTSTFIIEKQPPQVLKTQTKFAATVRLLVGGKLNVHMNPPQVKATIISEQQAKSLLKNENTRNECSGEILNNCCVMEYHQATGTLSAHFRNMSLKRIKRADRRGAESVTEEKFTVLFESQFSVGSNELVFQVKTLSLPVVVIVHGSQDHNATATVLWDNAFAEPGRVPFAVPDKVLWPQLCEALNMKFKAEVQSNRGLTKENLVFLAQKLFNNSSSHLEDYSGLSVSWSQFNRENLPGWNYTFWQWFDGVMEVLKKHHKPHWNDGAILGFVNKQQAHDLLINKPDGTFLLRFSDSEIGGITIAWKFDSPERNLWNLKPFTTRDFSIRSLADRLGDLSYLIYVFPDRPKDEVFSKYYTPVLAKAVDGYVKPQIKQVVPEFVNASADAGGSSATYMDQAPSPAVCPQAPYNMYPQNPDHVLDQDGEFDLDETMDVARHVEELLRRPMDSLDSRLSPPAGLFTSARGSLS
T1 sequence (P51692 whole entry): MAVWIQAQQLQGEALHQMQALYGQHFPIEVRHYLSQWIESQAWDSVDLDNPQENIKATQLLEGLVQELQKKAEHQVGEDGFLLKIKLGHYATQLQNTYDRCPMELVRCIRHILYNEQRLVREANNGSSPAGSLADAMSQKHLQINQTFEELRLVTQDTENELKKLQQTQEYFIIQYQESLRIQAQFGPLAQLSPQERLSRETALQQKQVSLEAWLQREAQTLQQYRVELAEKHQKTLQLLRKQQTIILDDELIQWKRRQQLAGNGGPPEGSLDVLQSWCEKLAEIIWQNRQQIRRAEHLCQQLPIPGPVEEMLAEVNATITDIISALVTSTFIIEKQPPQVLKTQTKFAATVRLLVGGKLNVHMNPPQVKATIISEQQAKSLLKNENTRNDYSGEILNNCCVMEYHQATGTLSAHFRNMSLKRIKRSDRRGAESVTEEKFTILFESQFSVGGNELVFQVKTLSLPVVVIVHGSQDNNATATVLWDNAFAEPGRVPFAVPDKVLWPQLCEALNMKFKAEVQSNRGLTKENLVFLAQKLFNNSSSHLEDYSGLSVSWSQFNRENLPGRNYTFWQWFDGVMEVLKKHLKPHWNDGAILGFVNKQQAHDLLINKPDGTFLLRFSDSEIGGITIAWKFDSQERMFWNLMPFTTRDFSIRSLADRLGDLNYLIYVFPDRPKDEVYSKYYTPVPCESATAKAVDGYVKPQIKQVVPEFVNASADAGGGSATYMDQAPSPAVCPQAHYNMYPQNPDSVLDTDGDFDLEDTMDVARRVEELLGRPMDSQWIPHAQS

[5] = Clearance in SCID mouse at 150 mg/kg, ip; assay type: ADME, organism-based; settings: in vivo
Mus musculus [6] = experiment: In vivo induction of degradation of STAT5 in human MV4-11 cells xenografted in SCID mouse assessed as reduction in STAT5 levels at 150 mg/kg, ip measured at 1 hrs by immunoblotting analysis; assay type: functional, organism-based
Mus musculus [7] = experiment: In vivo induction of degradation of STAT5 in human MV4-11 cells xenografted in SCID mouse assessed as reduction in STAT5 phosphorylation at Y694 residue at 150 mg/kg, ip measured at 1 hrs by immunoblotting analysis; assay type: functional, organism-based
MV4-11 [8] = experiment: Effect on STAT6 level in human MV4-11 cells upto 5 uM measured for 18 hrs by Western blot analysis; assay type: functional, cell-based
MOLM-13 [9] = experiment: Antiproliferative activity against human MOLM-13 cells assessed as maximal cell growth inhibition measured for 4 days by celltiter-glo assay relative to control; assay type: functional; settings: time 4 day
[10] = Antiproliferative activity against human OCI-M2 cells assessed as cell growth inhibition measured for 4 days by celltiter-glo assay; settings: OCI-M2, 96 h
Protein cereblon = Protein cereblon (Homo sapiens, UniProt Q96SW2); experiment: Binding affinity to GST-tagged wild type human CRBN assessed as inhibition constant by TR-FRET assay
Sequence of Protein cereblon (Q96SW2 whole entry): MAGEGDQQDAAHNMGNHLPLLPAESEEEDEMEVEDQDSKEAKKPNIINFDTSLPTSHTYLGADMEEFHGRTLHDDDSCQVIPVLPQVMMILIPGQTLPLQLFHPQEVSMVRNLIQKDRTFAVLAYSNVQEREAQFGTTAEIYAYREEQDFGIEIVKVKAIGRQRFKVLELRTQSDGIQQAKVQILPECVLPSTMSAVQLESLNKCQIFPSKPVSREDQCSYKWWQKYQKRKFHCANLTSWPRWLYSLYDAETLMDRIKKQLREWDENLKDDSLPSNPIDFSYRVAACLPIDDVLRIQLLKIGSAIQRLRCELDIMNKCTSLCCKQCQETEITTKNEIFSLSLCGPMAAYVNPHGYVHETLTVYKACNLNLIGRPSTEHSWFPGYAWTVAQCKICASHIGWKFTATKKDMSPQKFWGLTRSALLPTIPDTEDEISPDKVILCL

[11] = Antiproliferative activity against human BDCM cells assessed as maximal cell growth inhibition measured for 4 days by celltiter-glo assay relative to control; assay type: functional; settings: time 4 day
[12] = Toxicity in SCID mouse assessed as effect on sign of illness at 50 to 200 mg/kg, ip administered 5 days a week for 3 weeks; assay type: organism-based; settings: in vivo, 120 h, dose 50-200 mg/kg, time 5 day
MV4-11 [13] = experiment: Antitumor activity against human MV4-11 cells xenografted in SCID mouse assessed as tumor growth inhibition at 100 mg/kg, ip administered 5 days a week for 3 weeks; assay type: functional; settings: MV4-11, 504 h, read-out: TGI
STAT5A/STAT5B [14] = target: T1, STAT5A/STAT5B; experiment: Induction of STAT5A/5B degradation in human SKNO-1 cells measured for 18 hrs by immunoblotting analysis; assay type: cell-based
[15] = target: T2, Signal transducer and activator of transcription 5A (Homo sapiens, UniProt P42229); experiment: Induction of STAT5 degradation in human SKNO-1 cells assessed as reduction in phosphorylated STAT5 level measured for 18 hrs by immunoblotting analysis; assay type: cell-based
T2 sequence (P42229 whole entry): T1 sequence (P42229 whole entry)

SKNO-1 [16] = experiment: Effect on STAT6 level in human SKNO-1 cells upto 5 uM measured for 18 hrs by Western blot analysis; assay type: functional, cell-based
[17] = In vivo induction of degradation of STAT5 in human MV4-11 cells xenografted in SCID mouse assessed as reduction in STAT5 levels at 150 mg/kg, ip measured at 1 to 24 hrs by immunoblotting analysis; assay type: functional; parameters: scale not given: the % may be the effect or the level left; settings: time 1-24 hrs
STAT5A/STAT5B [18] = target: T1, STAT5A/STAT5B; experiment: Induction of STAT5A/5B degradation in human OCI-M2 cells measured for 18 hrs by immunoblotting analysis; assay type: cell-based

- IC50 (OCI-AML2): > 15000 nM
- IC50 (MOLM-13 [3]): > 15000 nM
- DC50 (STAT5A/STAT5B [4]): 410 nM
- CL/F [5]: 12.8 mL/min/kg
- Ki (Protein cereblon): 170 nM
- DC50 (STAT5A/STAT5B [14]): 80 nM
- DC50 [15]: 70 nM
- DC50 (STAT5A/STAT5B [18]): 700 nM
Structure (SMILES): CN(CCCC#Cc1cccc2c1CN(C1CCC(=O)NC1=O)C2=O)C(=O)CCN(C(=O)[C@@H]1CCCN1C(=O)[C@@H](NC(=O)c1cc2cc(C(F)(F)P(=O)(O)O)ccc2s1)C(C)(C)C)c1ccc(-c2nccs2)cc1 (stereo not given in full)
- Activity (SKNO-1 [1]): inactive
- Activity (MV4-11 [2]): inactive
- Activity (Mus musculus [6]): Active
- Activity (Mus musculus [7]): Active
- Activity (MV4-11 [8]): inactive
- Imax (MOLM-13 [9]): <5%
- IC50 [10]: > 15000 nM
- Imax [11]: <5%
- Activity [12]: Non-Toxic
- inhibition in vivo at 100 mg/kg (MV4-11 [13]): 60%
- Activity (SKNO-1 [16]): inactive
- Activity [17]: >95%
